From ChEMBL document CHEMBL3885861, “Open TG-GATES”

Organism: Rattus norvegicus
Experiment: Open TG-GATES - Regimen: Daily Repeat
Assay type: toxicity, organism-based, Sprague-Dawley
Set-up: regimen Daily Repeat, gender Male, age 6 weeks
Settings: in vivo, po, route gavage; for APTT / Bas / Eos / Fbg / Hb / Ht / Lym / MCH / MCHC / MCV / Mono / Neu / PT / Plat / RBC / Ret / WBC: tissue Blood; for A/G / ALP / ALT / AST / BUN / CRE / Ca / Cl / DBIL / GLC / IP / K / LDH / Na / PL / RALB / TBIL / TC / TG / TP / gamma-GTP: tissue Plasma
[1] = 30 mg/kg, 72 h, dose level Middle, time 3 day
[2] = 30 mg/kg, […], dose level Middle, time 7 day
[3] = 30 mg/kg, […], dose level Middle, time 14 day
[4] = 30 mg/kg, […], dose level Middle, time 28 day
[5] = 100 mg/kg, 72 h, dose level High, time 3 day
[6] = 100 mg/kg, […], dose level High, time 7 day
[7] = 100 mg/kg, […], dose level High, time 14 day
[8] = 100 mg/kg, […], dose level High, time 28 day

SMILES: Cn1cc[nH]c1=S [METHIMAZOLE]
- TERMINAL_BW [1]: 217 g
- APTT [1]: 20.8 s
- Bas [1]: 0%
- Eos [1]: 1%
- Fbg [1]: 340.6 mg/dL
- Hb [1]: 14 g/dL
- Ht [1]: 39.7%
- Lym [1]: 84%
- MCH [1]: 21.6 pg
- MCHC [1]: 35.2%
- MCV [1]: 61.2 fL
- Mono [1]: 2%
- Neu [1]: 12.8%
- PT [1]: 16.5 s
- Plat [1]: 131.6 x10_4/uL
- RBC [1]: 648.8 x10_4/ul
- Ret [1]: 5.4%
- WBC [1]: 83.8 x10_2/uL
- A/G [1]: 1.2
- ALP [1]: 1643.6 IU/L
- ALT [1]: 41.2 IU/L
- AST [1]: 61 IU/L
- BUN [1]: 14.6 mg/dL
- CRE [1]: 0.1 mg/dL
- Ca [1]: 11 mg/dL
- Cl [1]: 107 meq/L
- DBIL [1]: 0.002 mg/dL
- GLC [1]: 178.4 mg/dL
- IP [1]: 6.6 mg/dL
- K [1]: 4.4 meq/L
- LDH [1]: 260.2 IU/L
- Na [1]: 142.4 meq/L
- PL [1]: 173 mg/dL
- RALB [1]: 3.3 g/dL
- TBIL [1]: 0.012 mg/dL
- TC [1]: 94 mg/dL
- TG [1]: 132.8 mg/dL
- TP [1]: 5.9 g/dL
- gamma-GTP [1]: 1.2 IU/L
- TERMINAL_BW [2]: 231.6 g
- TERMINAL_BW [3]: 256 g
- TERMINAL_BW [4]: 282.7 g
- APTT [2]: 20.9 s
- Bas [2]: 0%
- Eos [2]: 1%
- Fbg [2]: 335.6 mg/dL
- Hb [2]: 15.1 g/dL
- Ht [2]: 41.3%
- Lym [2]: 83.6%
- MCH [2]: 22.3 pg
- MCHC [2]: 36.7%
- MCV [2]: 60.7 fL
- Mono [2]: 2%
- Neu [2]: 12.8%
- PT [2]: 16.9 s
- Plat [2]: 122.3 x10_4/uL
- RBC [2]: 680 x10_4/ul
- Ret [2]: 3.7%
- WBC [2]: 90.9 x10_2/uL
- APTT [3]: 21.6 s
- Bas [3]: 0%
- Eos [3]: 0.2%
- Fbg [3]: 295 mg/dL
- Hb [3]: 14.6 g/dL
- Ht [3]: 41.6%
- Lym [3]: 89%
- MCH [3]: 20.2 pg
- MCHC [3]: 35%
- MCV [3]: 57.6 fL
- Mono [3]: 1%
- Neu [3]: 8.4%
- PT [3]: 17.5 s
- Plat [3]: 109.2 x10_4/uL
- RBC [3]: 721.2 x10_4/ul
- Ret [3]: 1.6%
- WBC [3]: 89.2 x10_2/uL
- APTT [4]: 21.4 s
- Bas [4]: 0%
- Eos [4]: 0.8%
- Fbg [4]: 290.6 mg/dL
- Hb [4]: 15.4 g/dL
- Ht [4]: 42.4%
- Lym [4]: 84.4%
- MCH [4]: 19.3 pg
- MCHC [4]: 36.2%
- MCV [4]: 53.3 fL
- Mono [4]: 2%
- Neu [4]: 12.2%
- PT [4]: 17.4 s
- Plat [4]: 90.1 x10_4/uL
- RBC [4]: 796 x10_4/ul
- Ret [4]: 1%
- WBC [4]: 91.7 x10_2/uL
- A/G [2]: 1.1
- ALP [2]: 1563.2 IU/L
- ALT [2]: 34.4 IU/L
- AST [2]: 57 IU/L
- BUN [2]: 17.2 mg/dL
- CRE [2]: 0.2 mg/dL
- Ca [2]: 10.7 mg/dL
- Cl [2]: 108 meq/L
- DBIL [2]: 0.002 mg/dL
- GLC [2]: 166.8 mg/dL
- IP [2]: 6.7 mg/dL
- K [2]: 4.2 meq/L
- LDH [2]: 248.8 IU/L
- Na [2]: 141.8 meq/L
- PL [2]: 169.4 mg/dL
- RALB [2]: 3.2 g/dL
- TBIL [2]: 0.002 mg/dL
- TC [2]: 97 mg/dL
- TG [2]: 105 mg/dL
- TP [2]: 6.3 g/dL
- gamma-GTP [2]: 1 IU/L
- A/G [3]: 1.1
- ALP [3]: 1519.4 IU/L
- ALT [3]: 31.2 IU/L
- AST [3]: 48 IU/L
- BUN [3]: 22.2 mg/dL
- CRE [3]: 0.2 mg/dL
- Ca [3]: 10.8 mg/dL
- Cl [3]: 106.4 meq/L
- DBIL [3]: 0.002 mg/dL
- GLC [3]: 175.6 mg/dL
- IP [3]: 6.2 mg/dL
- K [3]: 3.8 meq/L
- LDH [3]: 190.4 IU/L
- Na [3]: 142.6 meq/L
- PL [3]: 169 mg/dL
- RALB [3]: 3.4 g/dL
- TBIL [3]: 0.018 mg/dL
- TC [3]: 105 mg/dL
- TG [3]: 79.6 mg/dL
- TP [3]: 6.7 g/dL
- gamma-GTP [3]: 1 IU/L
- A/G [4]: 1
- ALP [4]: 839.6 IU/L
- ALT [4]: 34 IU/L
- AST [4]: 44 IU/L
- BUN [4]: 21.2 mg/dL
- CRE [4]: 0.3 mg/dL
- Ca [4]: 10.4 mg/dL
- Cl [4]: 106.2 meq/L
- DBIL [4]: 0.006 mg/dL
- GLC [4]: 169.8 mg/dL
- IP [4]: 5.3 mg/dL
- K [4]: 3.9 meq/L
- LDH [4]: 154.8 IU/L
- Na [4]: 142.2 meq/L
- PL [4]: 159.6 mg/dL
- RALB [4]: 3.5 g/dL
- TBIL [4]: 0.014 mg/dL
- TC [4]: 103.2 mg/dL
- TG [4]: 53.8 mg/dL
- TP [4]: 6.9 g/dL
- gamma-GTP [4]: 2 IU/L
- TERMINAL_BW [5]: 196.1 g
- APTT [5]: 20.2 s
- Bas [5]: 0%
- Eos [5]: 1%
- Fbg [5]: 316.5 mg/dL
- Hb [5]: 14.8 g/dL
- Ht [5]: 41.3%
- Lym [5]: 81.4%
- MCH [5]: 21.8 pg
- MCHC [5]: 35.9%
- MCV [5]: 60.6 fL
- Mono [5]: 2.2%
- Neu [5]: 14.6%
- PT [5]: 15.9 s
- Plat [5]: 118.8 x10_4/uL
- RBC [5]: 682.8 x10_4/ul
- Ret [5]: 3.7%
- WBC [5]: 59.4 x10_2/uL
- A/G [5]: 1.2
- ALP [5]: 1390.6 IU/L
- ALT [5]: 34.8 IU/L
- AST [5]: 42.2 IU/L
- BUN [5]: 16.6 mg/dL
- CRE [5]: 0.1 mg/dL
- Ca [5]: 10.8 mg/dL
- Cl [5]: 108.2 meq/L
- DBIL [5]: 0.004 mg/dL
- GLC [5]: 162 mg/dL
- IP [5]: 7.1 mg/dL
- K [5]: 3.9 meq/L
- LDH [5]: 258.6 IU/L
- Na [5]: 141.8 meq/L
- PL [5]: 180.8 mg/dL
- RALB [5]: 3.2 g/dL
- TBIL [5]: 0.028 mg/dL
- TC [5]: 103 mg/dL
- TG [5]: 62.2 mg/dL
- TP [5]: 5.9 g/dL
- gamma-GTP [5]: 1 IU/L
- TERMINAL_BW [6]: 231.6 g
- TERMINAL_BW [7]: 234.9 g
- TERMINAL_BW [8]: 244.7 g
- APTT [6]: 20.6 s
- Bas [6]: 0%
- Eos [6]: 1%
- Fbg [6]: 347.6 mg/dL
- Hb [6]: 14.7 g/dL
- Ht [6]: 40.3%
- Lym [6]: 86.8%
- MCH [6]: 21.7 pg
- MCHC [6]: 36.4%
- MCV [6]: 59.6 fL
- Mono [6]: 2.2%
- Neu [6]: 8.4%
- PT [6]: 17.9 s
- Plat [6]: 132.4 x10_4/uL
- RBC [6]: 677 x10_4/ul
- Ret [6]: 2.3%
- WBC [6]: 73.6 x10_2/uL
- APTT [7]: 20.8 s
- Bas [7]: 0%
- Eos [7]: 0.4%
- Fbg [7]: 430.8 mg/dL
- Hb [7]: 14.5 g/dL
- Ht [7]: 40.9%
- Lym [7]: 80.4%
- MCH [7]: 20.4 pg
- MCHC [7]: 35.4%
- MCV [7]: 57.7 fL
- Mono [7]: 2.6%
- Neu [7]: 15%
- PT [7]: 18.1 s
- Plat [7]: 100.4 x10_4/uL
- RBC [7]: 708.8 x10_4/ul
- Ret [7]: 1.4%
- WBC [7]: 65 x10_2/uL
- APTT [8]: 19.9 s
- Bas [8]: 0%
- Eos [8]: 0.2%
- Fbg [8]: 298.4 mg/dL
- Hb [8]: 14.9 g/dL
- Ht [8]: 40.7%
- Lym [8]: 87.4%
- MCH [8]: 19.6 pg
- MCHC [8]: 36.7%
- MCV [8]: 53.4 fL
- Mono [8]: 1.8%
- Neu [8]: 9.4%
- PT [8]: 18.1 s
- Plat [8]: 77.6 x10_4/uL
- RBC [8]: 761.4 x10_4/ul
- Ret [8]: 0.7%
- WBC [8]: 79.7 x10_2/uL
- A/G [6]: 1.1
- ALP [6]: 1556.6 IU/L
- ALT [6]: 30.2 IU/L
- AST [6]: 32.4 IU/L
- BUN [6]: 18 mg/dL
- CRE [6]: 0.2 mg/dL
- Ca [6]: 11.1 mg/dL
- Cl [6]: 107.2 meq/L
- DBIL [6]: 0.004 mg/dL
- GLC [6]: 161.4 mg/dL
- IP [6]: 7 mg/dL
- K [6]: 4.1 meq/L
- LDH [6]: 221.8 IU/L
- Na [6]: 141.4 meq/L
- PL [6]: 203.2 mg/dL
- RALB [6]: 3.5 g/dL
- TBIL [6]: 0.01 mg/dL
- TC [6]: 120 mg/dL
- TG [6]: 89.4 mg/dL
- TP [6]: 6.7 g/dL
- gamma-GTP [6]: 1.8 IU/L
- A/G [7]: 1
- ALP [7]: 984.4 IU/L
- ALT [7]: 30.8 IU/L
- AST [7]: 26.6 IU/L
- BUN [7]: 21.6 mg/dL
- CRE [7]: 0.3 mg/dL
- Ca [7]: 11.1 mg/dL
- Cl [7]: 106.4 meq/L
- DBIL [7]: 0.006 mg/dL
- GLC [7]: 164.8 mg/dL
- IP [7]: 6.3 mg/dL
- K [7]: 4 meq/L
- LDH [7]: 182.6 IU/L
- Na [7]: 142.6 meq/L
- PL [7]: 201.4 mg/dL
- RALB [7]: 3.6 g/dL
- TBIL [7]: 0.034 mg/dL
- TC [7]: 140.2 mg/dL
- TG [7]: 44.4 mg/dL
- TP [7]: 7.2 g/dL
- gamma-GTP [7]: 2 IU/L
- A/G [8]: 1.1
- ALP [8]: 910 IU/L
- ALT [8]: 33.4 IU/L
- AST [8]: 25.8 IU/L
- BUN [8]: 24.8 mg/dL
- CRE [8]: 0.3 mg/dL
- Ca [8]: 10.8 mg/dL
- Cl [8]: 105.6 meq/L
- DBIL [8]: 0.028 mg/dL
- GLC [8]: 166.6 mg/dL
- IP [8]: 5.6 mg/dL
- K [8]: 3.5 meq/L
- LDH [8]: 151.2 IU/L
- Na [8]: 143.8 meq/L
- PL [8]: 167.6 mg/dL
- RALB [8]: 3.7 g/dL
- TBIL [8]: 0.048 mg/dL
- TC [8]: 110 mg/dL
- TG [8]: 42 mg/dL
- TP [8]: 7.2 g/dL
- gamma-GTP [8]: 2.6 IU/L
